Reference: patent US12600728B2, “Interleukin-17 inhibitors” (priority 2020, dated 2026)
Like-named read-outs stand apart in the source and are kept apart here.

Experiments:
[1] = molecular target: biotinylated human IL-17A / AF647-labeled human IL-17RA (Homo sapiens, UniProt Q16552); assay: Human IL-17A×IL-17RA TR-FRET assay; assay type: binding
Summary of the method: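 Compounds tested in duplicate at each concentration; neutral controls contain all components with DMSO in place of compound.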

[2] = molecular target: recombinant human IL-17AA (Homo sapiens, UniProt Q16552); assay: IL-6 release from NHDF cells, IL-17AA plus TNF-α stimulation; assay type: cell-based; settings: NHDF cells, 24 hours, IL-6 by ELISA, read-out: IL17AA + TNF IC50 IL-6
Summary of the method: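 IL-17-specific IL-6 release from NHDF cells adhered overnight; compounds pre-incubated 30 min at room temperature with human IL-17AA plus TNF-α, then 24 h on cells at 37° C. Final DMSO 0.1% or plasma 20%; IL-6 by ELISA (450 nm). TNF-α-only IL-6 subtracted before IC50 fit.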

[3] = TR-FRET, biotinylated human IL-17A 5 nM, AF647-labeled human IL-17RA 30 nM, read-out: IL17AA FRET/ IL17Rawt IC50
[4] = TR-FRET, 5 nM IL-17A, 30 nM IL-17RA, read-out: IL17AA FRET/ IL17Rawt IC50

Sequence of biotinylated human IL-17A / AF647-labeled human IL-17RA (Q16552 24-155): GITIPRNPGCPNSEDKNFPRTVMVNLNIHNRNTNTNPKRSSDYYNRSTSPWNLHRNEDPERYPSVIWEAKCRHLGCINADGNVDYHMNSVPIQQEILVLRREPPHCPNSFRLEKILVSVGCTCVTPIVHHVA
Sequence of recombinant human IL-17AA (Q16552 24-155): as above

IC50 [1, 3] [nM] | IC50 ([2]; IL-17AA 30 pM plus TNF-α 6 pM) [nM] | IC50 ([1]; IL17AA FRET/ IL17Rawt IC50, TR-FRET, 5 nM IL-17A, 30 nM IL-17RA) [nM] | IC50 ([2]; IL-17AA 30 pM + TNF-α 6 pM) [nM] | IC50 [1, 4] [nM] | Structure (SMILES)
304 | 118 | – | – | – | Cc1c[n+]([O-])cc(C)c1-c1ccc(NC(=O)[C@@H](NC(=O)c2ccc3n2CCNC3)C2CCCCCC2)cc1 [Example 116, (S)-4-(4-(2-cycloheptyl-2-(1,2,3,4-tetrahydropyrrolo[1,2-a]pyrazine-6-carboxamido)acetamido)phenyl)-3,5-dimethylpyridine 1-oxide]
161 | 121 | – | – | – | Cc1c[n+]([O-])cc(C)c1-c1ccc(NC(=O)[C@@H](NC(=O)c2ccc3n2CCN(C)C3)C2CCCCCC2)cc1 [Example 117, (S)-4-(4-(2-cycloheptyl-2-(2-methyl-1,2,3,4-tetrahydropyrrolo[1,2-a]pyrazine-6-carboxamido)acetamido)phenyl)-3,5-dimethylpyridine 1-oxide]
183 | 20 | – | – | – | CC(=O)N1CCn2c(ccc2C(=O)N[C@H](C(=O)Nc2ccc(-c3c(C)c[n+]([O-])cc3C)cc2)C2CCCCCC2)C1 [Example 118, (S)-4-(4-(2-(2-acetyl-1,2,3,4-tetrahydropyrrolo[1,2-a]pyrazine-6-carboxamido)-2-cycloheptylacetamido)phenyl)-3,5-dimethylpyridine 1-oxide]
130 | 15 | – | – | – | Cc1cc[n+]([O-])c(C)c1-c1ccc(NC(=O)[C@@H](NC(=O)c2ccn3c2CN(C)CC3)C2CCCCCC2)cc1 [Example 119, (S)-3-(4-(2-cycloheptyl-2-(2-methyl-1,2,3,4-tetrahydropyrrolo[1,2-a]pyrazine-8-carboxamido)acetamido)phenyl)-2,4-dimethylpyridine 1-oxide]
94 | 4 | – | – | – | Cc1cc[n+]([O-])c(C)c1-c1ccc(NC(=O)[C@@H](NC(=O)c2ccc3n2CCN(C)C3)C2CCCCCC2)cc1 [Example 120, (S)-3-(4-(2-cycloheptyl-2-(2-methyl-1,2,3,4-tetrahydropyrrolo[1,2-a]pyrazine-6-carboxamido)acetamido)phenyl)-2,4-dimethylpyridine 1-oxide]
111 | 17 | – | – | – | Cc1cc[n+]([O-])c(C)c1-c1ccc(NC(=O)C(NC(=O)c2ccc3n2CCN(C)C3)C2CCC(C)CC2)cc1 [Example 121, 2,4-dimethyl-3-(4-((S)-2-(2-methyl-1,2,3,4-tetrahydropyrrolo[1,2-a]pyrazine-6-carboxamido)-2-((1r,4S)-4-methylcyclohexyl)acetamido)phenyl)pyridine 1-oxide]
128 | 9 | – | – | – | Cc1c(-c2ccc(NC(=O)[C@@H](NC(=O)c3ccc4n3CCN(C)C4)C3CCCCCC3)cc2F)c(Cl)cc[n+]1[O-] [Example 122, 4-chloro-3-(4-((S)-2-cycloheptyl-2-(2-methyl-1,2,3,4-tetrahydropyrrolo[1,2-a]pyrazine-6-carboxamido)acetamido)-2-fluorophenyl)-2-methylpyridine 1-oxide]
150 | 59 | – | – | – | Cc1c(-c2ccc(NC(=O)[C@@H](NC(=O)c3ccc4n3CCN(C)C4)C3CCC(F)(F)CC3)cc2)c(Cl)cc[n+]1[O-] [Example 123, (S)-4-chloro-3-(4-(2-(4,4-difluorocyclohexyl)-2-(2-methyl-1,2,3,4-tetrahydropyrrolo[1,2-a]pyrazine-6-carboxamido)acetamido)phenyl)-2-methylpyridine 1-oxide]
172 | 8 | – | – | – | Cc1c(-c2ccc(NC(=O)[C@@H](NC(=O)c3ccc4n3CCN(C)C4)C3CCCCC3)cc2F)c(Cl)cc[n+]1[O-] [Example 124, 4-chloro-3-(4-((S)-2-cyclohexyl-2-(2-methyl-1,2,3,4-tetrahydropyrrolo[1,2-a]pyrazine-6-carboxamido)acetamido)-2-fluorophenyl)-2-methylpyridine 1-oxide]
174 | 18 | – | – | – | Cc1cc[n+]([O-])c(C)c1-c1ccc(NC(=O)C(NC(=O)c2ccc3n2CCN(C)C3)C2CCC(C(F)(F)F)CC2)cc1 [Example 125, 2,4-dimethyl-3-(4-((S)-2-(2-methyl-1,2,3,4-tetrahydropyrrolo[1,2-a]pyrazine-6-carboxamido)-2-((1r,4S)-4-(trifluoromethyl)cyclohexyl)acetamido)phenyl)pyridine 1-oxide]
228 | 62 | – | – | – | Cc1c(-c2ccc(NC(=O)[C@@H](NC(=O)c3ccc4n3CCN(C)C4)C3CCCCC3)cc2F)ccc[n+]1[O-] [Example 126, (S)-3-(4-(2-cyclohexyl-2-(2-methyl-1,2,3,4-tetrahydropyrrolo[1,2-a]pyrazine-6-carboxamido)acetamido)-2-fluorophenyl)-2-methylpyridine 1-oxide]
236 | 12 | – | – | – | Cc1cc[n+]([O-])c(C)c1-c1ccc(NC(=O)[C@@H](NC(=O)c2ccc3n2CCN(C)C3)C2CCCCC2)cc1 [Example 127, (S)-3-(4-(2-cyclohexyl-2-(2-methyl-1,2,3,4-tetrahydropyrrolo[1,2-a]pyrazine-6-carboxamido)acetamido)phenyl)-2,4-dimethylpyridine 1-oxide]
299 | 54 | – | – | – | Cc1cc[n+]([O-])c(C)c1-c1ccc(NC(=O)[C@@H](NC(=O)c2ccc3n2CCN(C)C3)C2CC=C(F)CC2)cc1 (stereo partly drawn) [Example 128, 3-(4-((2S)-2-(4-fluorocyclohex-3-en-1-yl)-2-(2-methyl-1,2,3,4-tetrahydropyrrolo[1,2-a]pyrazine-6-carboxamido)acetamido)phenyl)-2,4-dimethylpyridine 1-oxide]
124 | 956 | – | – | – | Cc1cc[n+]([O-])c(C)c1-c1ccc(NC(=O)[C@H](Cc2ccccc2Cl)NC(=O)c2ccc3n2CCN(C)C3)cc1 [Example 130, (S)-3-(4-(3-(2-chlorophenyl)-2-(2-methyl-1,2,3,4-tetrahydropyrrolo[1,2-a]pyrazine-6-carboxamido)propanamido)phenyl)-2,4-dimethylpyridine 1-oxide]
99 | 17 | – | – | – | Cc1c(-c2ccc(NC(=O)[C@@H](NC(=O)c3ccc4n3CCN(C3COC3)C4)C3CCCCC3)cc2F)c(Cl)cc[n+]1[O-] [Example 133, 4-chloro-3-(4-((S)-2-cyclohexyl-2-(2-(oxetan-3-yl)-1,2,3,4-tetrahydropyrrolo[1,2-a]pyrazine-6-carboxamido)acetamido)-2-fluorophenyl)-2-methylpyridine 1-oxide]
72.8 | 7 | – | – | – | CC(=O)N1CCn2c(ccc2C(=O)N[C@H](C(=O)Nc2ccc(-c3c(Cl)cc[n+]([O-])c3C)c(F)c2)C2CCCCCC2)C1 [Example 134, 3-(4-((S)-2-(2-acetyl-1,2,3,4-tetrahydropyrrolo[1,2-a]pyrazine-6-carboxamido)-2-cycloheptylacetamido)-2-fluorophenyl)-4-chloro-2-methylpyridine 1-oxide]
– | – | 513 | 193 | – | Cc1cc[n+]([O-])c(C)c1-c1ccc(NC(=O)C(NC(=O)c2ccnn2C)C2CCCC(F)(F)C2)cc1 (stereo not shown) [Example 147, 3-(4-(2-(3,3-difluorocyclohexyl)-2-(1-methyl-1H-pyrazole-5-carboxamido)acetamido)phenyl)-2,4-dimethylpyridine 1-oxide]
– | – | – | 131 | 125 | Cc1cc[n+]([O-])c(C)c1-c1ccc(NC(=O)[C@@H](NC(=O)c2ccnn2C)C2CCCCCC2)nc1 [Example 148, (S)-6′-(2-cycloheptyl-2-(1-methyl-1H-pyrazole-5-carboxamido)acetamido)-2,4-dimethyl-[3,3′-bipyridine] 1-oxide]
– | – | – | 59 | 118 | Cc1cc[n+]([O-])c(C)c1-c1ccc(NC(=O)[C@@H](NC(=O)c2ccc3n2CCN(C)C3)C2CCCCCC2)nc1 [Example 149, (S)-6′-(2-cycloheptyl-2-(2-methyl-1,2,3,4-tetrahydropyrrolo[1,2-a]pyrazine-6-carboxamido)acetamido)-2,4-dimethyl-[3,3′-bipyridine] 1-oxide]
– | – | – | 57 | 260 | Cc1cc[n+]([O-])c(C)c1-c1ccc(NC(=O)[C@@H](NC(=O)c2ccc3n2CCN(C)C3)C2CCC(F)(F)CC2)cc1 [Example 151, (S)-3-(4-(2-(4,4-difluorocyclohexyl)-2-(2-methyl-1,2,3,4-tetrahydropyrrolo[1,2-a]pyrazine-6-carboxamido)acetamido)phenyl)-2,4-dimethylpyridine 1-oxide]
– | – | – | 51.5 | 110 | Cc1cc[n+]([O-])c(C)c1-c1ccc(NC(=O)C(NC(=O)c2ccnn2C)C2CCCCC(F)(F)C2)cc1 (stereo not shown) [Example 156, 3-(4-(2-(3,3-difluorocycloheptyl)-2-(1-methyl-1H-pyrazole-5-carboxamido)acetamido)phenyl)-2,4-dimethylpyridine 1-oxide]
– | – | – | 105 | 170 | Cc1cc[n+]([O-])c(C)c1-c1ccc(NC(=O)[C@@H](NC(=O)c2cn[nH]c2C(C)C)C2CCCCC2)cc1 [Example 157, (S)-3-(4-(2-cyclohexyl-2-(5-isopropyl-1H-pyrazole-4-carboxamido)acetamido)phenyl)-2,4-dimethylpyridine 1-oxide]
– | – | – | 15.5 | < 6.1 | Cc1c(-c2ccc(NC(=O)C(NC(=O)c3ccnn3C(C)C)C3CCCC(F)(F)C3)cc2)c(Cl)cc[n+]1[O-] (stereo not shown) [Example 158, 4-chloro-3-(4-(2-(3,3-difluorocyclohexyl)-2-(1-isopropyl-1H-pyrazole-5-carboxamido)acetamido)phenyl)-2-methylpyridine 1-oxide]
